Format in all cases: cell-based
For assay [1], the system named is Streptococcus pneumoniae. Briefly: reversal of tolerance by exogenous synthetic Pep27 added with vancomycin. Conditions: tolerant clinical strains, vancomycin 10×MIC in the absence of peptide. The method, then:
Pep27 Transport by Vex. In laboratory strains, tolerance has been created by loss of function mutations in the death signal Pep27 or its transporter Vex, the loci contiguous with vncS/R. Tolerance in these cases was attributed to lack of Pep27 or lack of Pep27 export into the supernatant. To assess Pep27 in the supernatant, immunoprecipitations were performed using Pep27 antibody. […] Therefore, extracellular transport of the peptide may be defective in tolerant strains leading to the loss of signal for death through VncS. If so, tolerance should be reversed through the addition of exogenous Pep27 to the culture. To test this, tolerant clinical strains were treated with vancomycin at 10×MIC as before but 0.5 mM synthetic Pep27 was added in conjunction with the antibiotic.

Assay [2] has as its system Streptococcus pneumoniae. Briefly: viability assay after exposure to vancomycin. From the text:
To confirm tolerance, the 27 non-lytic strains were subjected to viability assays. […] This is within ±2 standard deviations (SD) of the killing rate for the tolerant Lyt4-4 strain.

Assay [3] deals with Streptococcus pneumoniae. Briefly: MIC of tolerant isolates. Conditions: tolerant clinical isolates. The method, then:
(§1) Characteristics of Tolerant Isolates. The MIC's of the tolerant isolates ranged from 0.1 ug/ml to 0.3 ug/ml vancomycin and all were resistant to penicillin as evidenced by an oxacillin disc sensitivity test. Tolerance was not correlated with serotype. Frequently, tolerant strains were isolated days to weeks after non-tolerant strains in the same child indicating tolerance could arise during carriage in the nasopharynx. Clonal relatedness between the non-tolerant and tolerant strains isolated sequentially from the same child was assessed by pulse-field gel electrophoresis (PFGE) patterns of SmaI digested genomic DNA. […] Thus, tolerant and non-tolerant strains could be paired for comparison. PFGE indicated a possible serotype switch in one child (Child C), while another child (Child E) was colonized by two separate, yet closely related, tolerant strains.

For assay [4], the system named is Streptococcus pneumoniae. Briefly: lysis after exposure to 10×MIC vancomycin (optical density of the culture). The method, then:
Prevalence of vancomycin tolerance in clinical isolates. To determine the prevalence of vancomycin tolerance in Streptococcus pneumoniae in a population of healthy children, 215 nasopharygeal isolates from Vanderbilt University Hospital were screened for lysis after exposure to 10×MIC (minimum inhibitory concentration) vancomycin (5 ug/ml).

Assay [5] has as its system Streptococcus pneumoniae. Briefly: lysis by 1% deoxycholate (activation of functional LytA). Conditions: all tolerant isolates. From the text: Identification of the Mechanism Contributing to Tolerance. […] Furthermore, all tolerant isolates were lysed by 1% deoxycholate—a detergent that specifically activates functional LytA causing lysis of the bacteria. This eliminated mechanisms of tolerance in the clinical strains that arise from lack of enzyme or loss of amidase activity. Attention thus focused on the only reported mechanism where normal amidase is present: mutation of the vncR/S locus, encoding a two-component sensor regulator system. Western blot analysis confirmed the presence of VncS and VncR in the tolerant clinical isolates.

Assay [6] deals with Streptococcus pneumoniae. Briefly: oxacillin disc sensitivity test. To be noted: tolerant clinical isolates. As for the experimental part:
as §1

As to `CN[C@H](CC(C)C)C(=O)N[C@H]1C(=O)N[C@@H](CC(N)=O)C(=O)N[C@H]2C(=O)N[C@H]3C(=O)N[C@H](C(=O)N[C@H](C(=O)O)c4cc(O)cc(O)c4-c4cc3ccc4O)[C@H](O)c3ccc(c(Cl)c3)Oc3cc2cc(c3O[C@@H]2O[C@H](CO)[C@@H](O)[C@H](O)[C@H]2O[C@H]2C[C@](C)(N)[C@H](O)[C@H](C)O2)Oc2ccc(cc2Cl)[C@H]1O` [vancomycin], in the assay with Streptococcus pneumoniae [1], the viability diminished turned out to be 2 logs. This compound returned a log kill in the assay on Streptococcus pneumoniae [2] (R6 strain, after 4 hours of exposure to vancomycin) of 5 log. For the same compound, in the assay on Streptococcus pneumoniae [2] (eight tolerant clinical isolates, after 4 hours of exposure to vancomycin), the log killing is given as less than 3 log. For the same compound, in the assay on Streptococcus pneumoniae [2] (remaining 19 non-lytic isolates), the “viability after antibiotic exposure” value is “dead after antibiotic exposure”. The MIC (as a rule, the least concentration at which growth counts as inhibited) with Streptococcus pneumoniae [3] lay in the range of 0.1 to 0.3 µg/mL. Moreover, the “optical density of the culture” value with Streptococcus pneumoniae [4] (27 of 215 nasopharyngeal isolates that failed to lyse, after 4 hours, 10×MIC vancomycin (5 ug/ml)) is listed as “above 0.15”. In the assay with Streptococcus pneumoniae [4] (control R6 strain, after 2 hours @ 10×MIC of vancomycin), the OD620nm was determined as 0.02.
For deoxycholate, the “lysis of the bacteria” value in the assay with Streptococcus pneumoniae [5] is given as “lysed”.
Consider penicillin, for which the penicillin susceptibility result in the assay with Streptococcus pneumoniae [6] was “resistant”.

The values above are taken from patent US6623931B2, “Diagnostic assay for antibiotic tolerance” (priority 2001, dated 2003).
